How the values were obtained:
ARK5/NUAK1 = ARK5/NUAK1 (Homo sapiens (Human), UniProt O60285); assay: Kinase selectivity test (HotSpot Full Panel Kinase profiling); assay type: biochemical; conditions: ARK5/NUAK1, compound 100 nM, ATP 10 μm; read-out: Residual activity (%)
CYP3A4 = CYP3A4 (Homo sapiens (Human), UniProt P08684); assay: CYP3A4 MBI and enzyme inactivation clearance evaluation; assay type: in vitro ADME; conditions: for Factor of change in IC50 value: human liver microsome, pre-incubation in the presence of NADPH
Chain of CYP3A4 (P08684 whole entry): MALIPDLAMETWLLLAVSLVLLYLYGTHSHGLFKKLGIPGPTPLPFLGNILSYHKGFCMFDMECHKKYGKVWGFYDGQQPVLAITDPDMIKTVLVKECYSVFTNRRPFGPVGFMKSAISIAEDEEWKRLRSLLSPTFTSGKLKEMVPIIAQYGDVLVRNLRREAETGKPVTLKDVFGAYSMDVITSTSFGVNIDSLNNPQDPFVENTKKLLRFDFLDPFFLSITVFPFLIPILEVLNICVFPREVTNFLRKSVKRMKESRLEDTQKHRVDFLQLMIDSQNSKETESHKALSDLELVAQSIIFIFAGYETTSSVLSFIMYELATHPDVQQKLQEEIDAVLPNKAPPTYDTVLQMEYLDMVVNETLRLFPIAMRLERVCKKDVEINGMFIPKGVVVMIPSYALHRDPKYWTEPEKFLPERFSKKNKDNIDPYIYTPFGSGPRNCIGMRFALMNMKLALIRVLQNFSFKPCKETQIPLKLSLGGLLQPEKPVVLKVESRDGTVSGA
Procedure: The effect and mode of inhibition of the test compound on CYP3A4 were evaluated using a human liver microsome as an enzyme source and midazolam or testosterone as a substrate. […] The IC50 value was calculated from a concentration plot.

[1] = test system: Human bone marrow CD34 positive hematopoietic stem cells; assay: Human bone marrow cell colony formation test (hemotoxicological evaluation); assay type: cell-based; conditions: 100 nM; for Colony count (/well) mean: 48 hours, then about 2 weeks culture
Procedure: Human bone marrow CD34 positive hematopoietic stem cells were obtained from Lonza K.K. The frozen cells were thawed in a medium prepared by mixing a Methocult Express medium and a 10% fetal bovine serum with 1% penicillin/streptomycin containing RPMI 1640 medium at 9:1. 5000 cells were seeded per well in a 6 well plate and cultured overnight at 37° C. in the presence of 5% CO2. The evaluated compound was added so that the final concentration of DMSO would be 0.1% and 100 nM, and the cells were cultured for 48 hours. The cells were retrieved and washed with PBS. ⅙ of the amount of cells was seeded in a 12 well plate and cultured for about 2 weeks at 37° C. in the presence of 5% CO2. After completion of culture, the number of colonies formed was calculated using Thiazolyl blue tetrazolium bromide (MTT).

[2] = test system: Human bone marrow CD34 positive hematopoietic stem cells; assay: Human bone marrow cell myeloid lineage differentiation induction test; assay type: cell-based; conditions: 3 nM
Procedure: Human bone marrow CD34 positive hematopoietic stem cells were obtained from Lonza K. K. The frozen cells were thawed in a 1% fetal bovine serum containing IMDM medium and suspended in a Complete hemaTox® Myeloid Medium. 1000 cells were seeded per well in a 96-well plate. The evaluated compound was added so that the final concentration of DMSO would be 0.1% and 3 nM, and the cells were cultured for 7 days at 37° C. in the presence of 5% CO2. After completion of culture, half of the amount of cell suspension was retrieved from each well. The luminescence was measured using CellTiter-Glo® 3D Reagent (Promega, G968B) to calculate the cell survival percentage by the following equation.

[3] = Liposome encapsulation test (Test Example 6); assay type: physicochemical
Procedure: 6.48 g of hydrogenated soybean phosphatidylcholine (COATSOME NC-21E, NOF Corporation), 2.32 g of cholesterol (Sigma) and 2.06 g of distearoylphosphatidylethanolamine-methoxypolyethylene glycol 2000 (SUNBRIGHT DSPE-020CN, NOF Corporation) were dissolved in 560 mL of t-butyl alcohol heated to 65° C. The solution was frozen with dry ice/acetone bath and t-butyl alcohol was then removed by evaporation under reduced pressure to obtain a lipid mixture.
200 mL of 250 mM ammonium sulfate solution was added to the lipid mixture. The resulting mixture was heated to 65° C. and dispersed with a homogenizer (ULTRA-TURRAX, IKA) to obtain a crude liposome dispersion. […] The prepared amount was increased or decreased appropriately.
2 to 3 mg of the test compound was weighed out. […] An aqueous 1 mol/L hydrochloric acid or 1 mol/L sodium hydroxide solution was added to adjust the pH to 5.5 to 7. […] Insolubles, when present, were removed by centrifugation for 5 minutes at 15,000× g.
The liposome encapsulation ratio was calculated as follows.
100 μL of liposome solution was passed through an ultrafiltration filter (Amicon Ultra, 100K, 0.5 mL, Merck), and centrifuged at 4° C. at 15,000×g for 10 minutes. The concentration of the compound in the filtrate after ultrafiltration was measured by HPLC as the unencapsulated compound concentration.
The liposome solution was diluted with a trifluoroacetic acid/water/methanol mixture (0.1/25/75) and was left standing for 10 minutes or longer at 5° C. The solution was centrifuged for 5 minutes at 15,000× g to remove insolubles. The compound concentration in the supernatant was measured by HPLC as the compound concentration in the liposome solution.
The encapsulation ratio and the encapsulation efficiency were calculated by the following equations.
HPLC measurement conditions are the following.

ES-2 cells [4] = assay: Cell growth suppression experiment; assay type: cell-based
Procedure: ES-2 cells were obtained from the American Type Culture Collection (ATCC). These cells were cultured at 37° C. in the presence of 5% CO2 in a 10% fetal bovine serum, 1% penicillin/streptomycin containing McCoy's 5a medium.
500 cells were seeded for each well in a 384-well plate, and the evaluated compound was added so that the final concentration of DMSO would be 0.1% to culture the cells for 2 days. After completion of the culture, the cell viability rate was calculated using CellTiter-Glo® 3D Reagent (Promega, G968B).
The results of cell growth suppression test on representative compounds of the present disclosure are listed in the following table based on the ranking of I, IT, III, IV, and V (1000 nM<I, 1000 nM>TI>300 nM, 300 nM>III>100 nM, 100 nMV>IV>30 nM, 30 nM>V).

hERG current = hERG current (Homo sapiens (Human), UniProt Q12809); assay: hERG current blocking test; conditions: for hERG/CHK1: IC50 of hERG divided by IC50 of CHK1 inhibition; for IC50: read-out: hERG inhibition IC50, hERG expressing CHO cells
Chain of hERG current (Q12809 whole entry): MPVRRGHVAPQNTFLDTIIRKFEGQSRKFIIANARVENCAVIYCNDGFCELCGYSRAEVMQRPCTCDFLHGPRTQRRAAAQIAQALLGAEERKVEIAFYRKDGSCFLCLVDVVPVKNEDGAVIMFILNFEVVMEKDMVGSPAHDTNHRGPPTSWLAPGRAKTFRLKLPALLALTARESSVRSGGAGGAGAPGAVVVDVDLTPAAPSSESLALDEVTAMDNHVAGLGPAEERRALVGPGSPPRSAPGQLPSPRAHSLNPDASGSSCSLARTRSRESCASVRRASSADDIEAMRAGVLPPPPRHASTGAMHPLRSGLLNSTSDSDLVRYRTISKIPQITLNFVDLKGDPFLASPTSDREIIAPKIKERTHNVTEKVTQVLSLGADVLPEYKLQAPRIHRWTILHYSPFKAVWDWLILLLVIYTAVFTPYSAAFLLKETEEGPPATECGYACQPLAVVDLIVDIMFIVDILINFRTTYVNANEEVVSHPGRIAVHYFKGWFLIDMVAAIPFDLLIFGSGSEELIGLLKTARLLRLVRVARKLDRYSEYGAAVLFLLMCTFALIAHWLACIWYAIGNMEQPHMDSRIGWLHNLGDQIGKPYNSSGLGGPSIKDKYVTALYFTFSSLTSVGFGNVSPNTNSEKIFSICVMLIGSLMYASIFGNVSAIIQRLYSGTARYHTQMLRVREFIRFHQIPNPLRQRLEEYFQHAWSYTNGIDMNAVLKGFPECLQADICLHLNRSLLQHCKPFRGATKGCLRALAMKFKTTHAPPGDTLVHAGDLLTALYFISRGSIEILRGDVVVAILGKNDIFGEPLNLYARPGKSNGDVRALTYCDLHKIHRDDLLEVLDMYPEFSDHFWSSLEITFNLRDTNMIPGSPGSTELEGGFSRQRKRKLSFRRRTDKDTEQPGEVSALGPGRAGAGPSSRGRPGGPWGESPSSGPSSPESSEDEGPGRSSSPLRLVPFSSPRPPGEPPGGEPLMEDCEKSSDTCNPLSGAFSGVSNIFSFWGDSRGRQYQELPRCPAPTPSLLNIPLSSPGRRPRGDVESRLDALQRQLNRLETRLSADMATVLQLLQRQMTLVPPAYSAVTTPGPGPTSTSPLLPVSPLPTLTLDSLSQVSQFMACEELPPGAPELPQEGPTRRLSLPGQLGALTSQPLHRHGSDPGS
Procedure: The test compounds were added to cultured hERG (human Ether-a-go-go Related Gene) gene stably expressing CHO cell line cells to achieve 0.27 to 100 μM.

CHK1 = CHK1 (Homo sapiens (Human), UniProt O14757); assay: CHK1 inhibitory activity test (IMAP TR-FRET)
Chain of CHK1 (O14757 whole entry): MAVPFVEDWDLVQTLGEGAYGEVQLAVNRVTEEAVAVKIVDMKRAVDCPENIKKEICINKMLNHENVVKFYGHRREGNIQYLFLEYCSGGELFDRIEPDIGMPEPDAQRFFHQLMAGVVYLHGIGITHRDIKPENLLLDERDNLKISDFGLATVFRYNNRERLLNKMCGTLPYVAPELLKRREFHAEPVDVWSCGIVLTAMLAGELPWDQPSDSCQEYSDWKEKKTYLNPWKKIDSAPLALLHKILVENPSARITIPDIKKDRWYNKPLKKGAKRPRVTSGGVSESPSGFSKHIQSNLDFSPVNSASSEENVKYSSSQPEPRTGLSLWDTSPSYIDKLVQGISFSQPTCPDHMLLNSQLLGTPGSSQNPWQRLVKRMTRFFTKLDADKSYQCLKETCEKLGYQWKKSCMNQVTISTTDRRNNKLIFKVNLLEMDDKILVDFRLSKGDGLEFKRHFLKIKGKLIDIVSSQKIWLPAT
Procedure: IMAP TR-FRET Screening Express Kit (R8160) was obtained from Molecular Devices. […] FAM-PKAtide (R7255, Molecular Devices) and FAM-Phospho-PKAtide (R7304, Molecular Devices) were admixed after dilution, and calibration standard systems for phosphorylation levels from 0 to 100% were created. 5 μL of a compound dissolved in a 0.4% DMSO solution was added to a 384 well plate. A compound study group to which 5 μL of each of CHK1, CHK1tide, and ATP was added, and a standard group to which 20 μL of standard was added were created, and subjected to a kinase reaction for 3 hours at 30° C. Subsequently, 60 μL of Binding Reagent (80% Buffer A, 20% Buffer B, 1:600 Binding Reagent, 1:400 Tb-Donor) was added for a binding reaction for 2 hours at room temperature.

ES-2 cells [5] = assay: Concomitantly used drug efficacy evaluation test using tumor-bearing mice transplanted with ES-2 cells (gemcitabine); assay type: in vivo, BALB/c-nu/nu mice; conditions: Peritoneal, 30 mg/kg, 14 days, 2 times/week
Excerpt: The test compound was weighed out.

neutrophils = conditions: 30 mg/kg, 14 days, 2 times/week, blood 96 hours after the final administration
Procedure: The test compound was weighed out. An empty liposome solution with a total lipid concentration of 50 mM was added so that the compound concentration would be 2 mg/mL, and 1 mol/L hydrochloric acid was added to adjust the pH to 6 to 7. Alternatively, 10 mM L-histidine buffer/10% sucrose solution (pH 6.5) and hydrochloric acid were added to the test compound to dissolve or disperse the compound, and an empty liposome solution with a total lipid concentration of 75 mM was added so that the compound concentration would be 2 mg/mL, and the pH was adjusted to 6 to 7.
Blood was collected 96 hours after the final administration to measure the neutrophil count.

[6] = test system: head and neck squamous cell carcinoma; conditions: head and neck squamous cell carcinoma (Non Patent Literature 7); cited from earlier work
[7] = Liposome encapsulation test of Example 1 (Test Example 6a); assay type: physicochemical
[8] = test system: mouse breast cancer cells EMT6; assay: Intracytoplasmic ssDNA evaluation test in cells; assay type: cell-based; conditions: EMT6, 24 hours treatment, versus DMSO
Procedure: (§1) After 24 hours from seeding of mouse breast cancer cells EMT6 and mouse renal cancer cells Renca, the cells were treated with Example 1 and DMSO and cultured for 24 hours. Thereafter, the cells were collected, and cytoplasmic components were extracted using NE-PER Nuclear and Cytoplasmic Extraction so Reagents (Thermo Fisher Scientific Inc.). After protein quantification and concentration adjustment, ssDNA was quantified using Qbit ssDNA Assay Kit (Thermo Fisher Scientific Inc.).

[9] = test system: mouse renal cancer cells Renca; assay: Intracytoplasmic ssDNA evaluation test in cells; assay type: cell-based; conditions: 24 hours treatment, versus DMSO
Procedure: as §1

[10] = concentration upon compound introduction 2 mg/mL
[11] = concentration upon compound introduction 3 mg/mL

Chain of ARK5/NUAK1 (O60285 whole entry): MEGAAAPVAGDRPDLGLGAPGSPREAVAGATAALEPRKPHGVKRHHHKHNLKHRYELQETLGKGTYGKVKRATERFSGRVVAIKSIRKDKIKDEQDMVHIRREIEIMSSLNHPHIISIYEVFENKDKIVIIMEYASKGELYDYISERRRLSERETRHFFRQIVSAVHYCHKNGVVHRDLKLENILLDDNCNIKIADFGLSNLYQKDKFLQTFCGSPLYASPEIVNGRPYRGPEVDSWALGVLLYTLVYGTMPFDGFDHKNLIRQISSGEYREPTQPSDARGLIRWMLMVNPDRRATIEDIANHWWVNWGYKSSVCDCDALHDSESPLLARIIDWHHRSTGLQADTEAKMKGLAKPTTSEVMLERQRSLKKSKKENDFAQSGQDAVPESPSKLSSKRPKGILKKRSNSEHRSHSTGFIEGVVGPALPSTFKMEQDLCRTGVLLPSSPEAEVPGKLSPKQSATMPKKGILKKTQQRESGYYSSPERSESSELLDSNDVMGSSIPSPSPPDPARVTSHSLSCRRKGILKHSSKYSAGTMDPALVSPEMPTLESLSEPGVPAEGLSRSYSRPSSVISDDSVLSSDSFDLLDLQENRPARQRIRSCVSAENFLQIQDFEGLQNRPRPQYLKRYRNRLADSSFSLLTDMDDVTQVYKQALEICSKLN

Compound | inhibition of CYP3A4 based on MBI (CYP3A4) | cell growth suppression effect compared with prexasertib (ES-2 cells [4]) | Factor of change in IC50 value (CYP3A4) | hERG/CHK1 (hERG current) | IC50 (hERG current) [nM] | IC50 (CHK1) [nM] | effect of suppressing CHK1 activity compared with prexasertib (CHK1) | also measured
COc1cccc(OCCCN)c1-c1cc(Nc2cnc(C#N)cn2)n[nH]1 [Prexasertib, reference compound] | exhibits inhibition of CYP3A4 based on MBI |  |  |  |  |  |  | remaining activity at 0.1 µM (ARK5/NUAK1): 17.9%; effect of suppressing human bone marrow cell colony formation [1]: exhibits an effect of suppressing human bone marrow cell colony formation; Colony count (/well) mean [1]: 19 /well; effect of suppressing myeloid cells induced to differentiate from human bone marrow cells [2]: exhibited an effect of suppressing myeloid cells induced to differentiate from human bone marrow cells; Compound concentration in liposome solution [3, 10]: 2160 µg/mL
COc1ccnc(OCC2(CN)CC2)c1-c1cc(Nc2cnc(C#N)cn2)n[nH]1 [Example 37, 5-{[5-(2-{[1-(aminomethyl)cyclopropyl]methoxy}-4-methoxypyridin-3-yl)-1H-pyrazol-3-yl]amino}pyrazine-2-carbonitrile] | do not exhibit inhibition of CYP3A4 based on MBI | excellent cell growth suppression effect that is equivalent to that of prexasertib | Not Detected | <8438 | < 2700 | 0.32 | more potent effect of suppressing CHK1 activity than prexasertib | 
COc1cncc(OC[C@H](F)CN)c1-c1cc(Nc2cnc(C#N)cn2)n[nH]1 [Example 30, 5-[(5-{3-[(2R)-3-amino-2-fluoropropoxy]-5-methoxypyridin-4-yl}-1H-pyrazol-3-yl)amino]pyrazine-2-carbonitrile] |  | excellent cell growth suppression effect that is equivalent to that of prexasertib | Not Detected | 40000 | 10400 | 0.26 | more potent effect of suppressing CHK1 activity than prexasertib | 
Nc1ccn([C@@H]2O[C@H](CO)[C@@H](O)C2(F)F)c(=O)n1 [Gemcitabine] |  |  |  |  |  |  |  | CR (%) (ES-2 cells [5]): 0%; T/C (%) (ES-2 cells [5]): 9%; Ratio of residual neutrophils (%) (neutrophils): 39%
COc1cncc(OC[C@@H](F)CN)c1-c1cc(Nc2cnc(C#N)cn2)n[nH]1 [Example 29, 5-[(5-{3-[(2S)-3-amino-2-fluoropropoxy]-5-methoxypyridin-4-yl}-1H-pyrazol-3-yl)amino]pyrazine-2-carbonitrile] |  | excellent cell growth suppression effect that is equivalent to that of prexasertib | Not Detected | 18667 | 11200 | 0.6 |  | inhibition at 0.0001 µM (CHK1; read-out: CHK1 inhibition % at 0.1 nM): < 5%
COc1nccc(OCC2(CO)CNC2)c1-c1cc(Nc2cnc(C#N)cn2)n[nH]1 [Example 8, 5-{[5-(4-{[3-(hydroxymethyl)azetidin-3-yl]methoxy}-2-methoxypyridin-3-yl)-1H-pyrazol-3-yl]amino}pyrazine-2-carbonitrile] |  |  | Not Detected | >1000000 | > 100000 | < 0.1 | more potent effect of suppressing CHK1 activity than prexasertib | 
nivolumab |  |  |  |  |  |  |  | overall response rate [6]: 13.3%
COc1ccnc(OCCCN)c1-c1cc(Nc2cnc(C#N)cn2)n[nH]1 [Example 1, 5-({5-[2-(3-aminopropoxy)-4-methoxypyridin-3-yl]-1H-pyrazol-3-yl}amino)pyrazine-2-carbonitrile] | do not exhibit inhibition of CYP3A4 based on MBI | excellent cell growth suppression effect that is equivalent to that of prexasertib | Not Detected | >115000 |  | < 0.1 | more potent effect of suppressing CHK1 activity than prexasertib | effect of suppressing human bone marrow cell colony formation [1]: does not exhibit an effect of suppressing human bone marrow colony formation; Colony count (/well) mean [1]: 34 /well; effect of suppressing myeloid cells induced to differentiate from human bone marrow cells [2]: does not exhibit an effect of suppressing myeloid cells induced to differentiate from human bone marrow cells; liposome encapsulation efficiency [7]: ≥ 90%; Encapsulation efficiency (%) [7, 10]: 91.3%; Encapsulation efficiency (%) [7, 11]: 91.6%; Encapsulation efficiency (%) ([7]; concentration upon compound introduction 4 mg/mL): 92.2%; CHK1 inhibitory activity relative to prexasertib (CHK1): ≥ 5 fold; encapsulation efficiency [3]: ≥ 80%; Encapsulation efficiency (%) [3, 11]: 87.4%; liquid viscosity during the liposome encapsulation procedure ([3]; pH adjusted by adding 1 mol/L hydrochloric acid): increase in viscosity was not found; increase of ssDNA in cytoplasm [8]: 1.3 times; increase of ssDNA in cytoplasm [9]: 1.5 times

Source: patent US20250352541A1, “THERAPEUTIC FOR CANCER REFRACTORY TO IMMUNE CHECKPOINT INHIBITOR” (Sumitomo Pharma Co., Ltd., priority 2022, published 2025)
